Test results: EP3603649A1 (priority 2018, dated 2020)

Biological target: PrP^res (Homo sapiens, UniProt P04156)
Format: cell-based

COC[C@H]1O[C@@H]2O[C@H]3[C@H](O)[C@@H](OC)[C@@H](O[C@H]4[C@H](O)[C@@H](OC)[C@@H](O[C@H]5[C@H](O)[C@@H](OC)[C@@H](O[C@H]6[C@H](O)[C@@H](OC)[C@@H](O[C@H]7[C@H](O)[C@@H](OC)[C@@H](O[C@H]8[C@H](O)[C@@H](OC)[C@@H](O[C@H]1[C@H](O)[C@H]2OC)O[C@@H]8COC)O[C@@H]7COC)O[C@@H]6COC)O[C@@H]5COC)O[C@@H]4COC)O[C@@H]3COC [DIMEB, heptakis(2,6-O-dimethyl)beta-cyclodextrin]
PrP^Sc accumulation: significantly decreased
